Results as given in patent publication US10596268B2, “Conjugate of dezocine and polyethylene glycol” (JenKem Technology Co., Ltd. (Beijing), priority 2016, dated 2020).

Legend:
CFA rat model = test: Pharmacodynamic experiment: Frey's hair pain threshold in CFA rat model; assay type: in vivo, SD rats; settings: oral 10 mg/kg; for Pain threshold value, Frey's hair: mean ± standard deviation
[1] = Pharmacokinetic experiment: drug concentration in plasma of SD rats after oral administration (LC-MS/MS); settings: 10 mg/kg; for AUC(0-t) / Cmax / Tmax / half-life: male, SD, rat, po; for AUClast (Plasma) / Cmax (Plasma) / t1/2 (Plasma) / tmax (Plasma): SD rats, oral
[2] = Pharmacokinetic experiment: drug concentration in brain tissue of SD rats after oral administration (LC-MS/MS); settings: 10 mg/kg; for AUClast (Brain) / Cmax (Brain) / AUClast Ratio (Brain/Plasma) / t1/2 (Brain) / tmax (Brain): SD rats, oral; for AUClast (Brain) / Cmax (Brain) / t1/2 (Brain) / tmax (Brain): brain tissue; for Kp / Tmax / half-life: male, SD, rat, po; for Kp: brain and plasma; for Tmax / half-life: brain
[3] = in vivo; cited from earlier work
[4] = 0 h (basal value before administration)

SMILES: C[C@@]12CCCCC[C@@H](Cc3ccc(O)cc31)[C@@H]2NCCOCCOCCOCCOCCN[C@H]1[C@H]2CCCCC[C@]1(C)c1cc(O)ccc1C2 [JK-2215D03, Pentaethylene Glycol-Dezocine Conjugate]
- Pain threshold value, Frey's hair (CFA rat model; [4]): 7.7 ± 1.4 g
- Pain threshold value, Frey's hair (CFA rat model; 0.25 h after administration): 9.2 ± 1.4 g
- Pain threshold value, Frey's hair (CFA rat model; 2 h after administration): 11.2 ± 2.0 g
- Pain threshold value, Frey's hair (CFA rat model; 6 h after administration): 11.4 ± 0.9 g
- Pain threshold value, Frey's hair (CFA rat model; 24 h after administration): 10.6 ± 2.0 g
- AUC(0-t) [1]: 1230 ng·h/mL
- Cmax [1]: 344 ng/mL
- Tmax [1]: 2 h
- half-life [1]: 4.12 h
- AUClast (Brain) [2]: 813 ng·h/g
- Cmax (Brain) [2]: 129 ng/g
- Kp [2]: 0.659
- Tmax [2]: 7 h
- half-life [2]: 19.7 h

SMILES: COCCOCCOCCOCCOCCOCCN[C@H]1[C@H]2CCCCC[C@]1(C)c1cc(O)ccc1C2 [JK-2215D02, Monomethoxyhexaethylene Glycol-Dezocine Conjugate]
- Pain threshold value, Frey's hair (CFA rat model; [4]): 7.8 ± 0.8 g
- Pain threshold value, Frey's hair (CFA rat model; 0.25 h after administration): 10.3 ± 1.2 g
- Pain threshold value, Frey's hair (CFA rat model; 2 h after administration): 12.1 ± 1.5 g
- Pain threshold value, Frey's hair (CFA rat model; 6 h after administration): 13.2 ± 0.9 g
- Pain threshold value, Frey's hair (CFA rat model; 24 h after administration): 10.7 ± 1.5 g
- AUClast (Plasma) [1]: 1312 ng·h/mL
- Cmax (Plasma) [1]: 339 ng/mL
- t1/2 (Plasma) [1]: 4.45 h
- tmax (Plasma) [1]: 3 h
- AUClast Ratio (Brain/Plasma) [2]: 0.757
- AUClast (Brain) [2]: 993 ng·h/g
- Cmax (Brain) [2]: 166 ng/g
- t1/2 (Brain) [2]: 18.7 h
- tmax (Brain) [2]: 8 h

SMILES: COCCOCCOCCOCCOCCOCCOc1ccc2c(c1)C1(C)CCCCCC(C2)C1N (stereo not drawn) [JK-2215D01, Monomethoxyhexaethylene Glycol-Dezocine Conjugate]
- Pain threshold value, Frey's hair (CFA rat model; [4]): 7.6 ± 0.8 g
- Pain threshold value, Frey's hair (CFA rat model; 0.25 h after administration): 8.7 ± 1.3 g
- Pain threshold value, Frey's hair (CFA rat model; 2 h after administration): 9.1 ± 1.3 g
- Pain threshold value, Frey's hair (CFA rat model; 6 h after administration): 8.7 ± 1.1 g
- Pain threshold value, Frey's hair (CFA rat model; 24 h after administration): 7.8 ± 1.4 g
- AUClast (Plasma) [1]: 1366 ng·h/mL
- Cmax (Plasma) [1]: 345 ng/mL
- t1/2 (Plasma) [1]: 4.33 h
- tmax (Plasma) [1]: 3 h
- AUClast Ratio (Brain/Plasma) [2]: 0.734
- AUClast (Brain) [2]: 925 ng·h/g
- Cmax (Brain) [2]: 147 ng/g
- t1/2 (Brain) [2]: 17.6 h
- tmax (Brain) [2]: 8 h

SMILES: C[C@@]12CCCCC[C@@H](Cc3ccc(O)cc31)[C@@H]2N [JK-2215D00, 13-amino-5,6,7,8,9,10,11,12-octahydro-5-methyl-5,11-methylenebenzocyclodecen-3-ol, reference compound]
- Pain threshold value, Frey's hair (CFA rat model; [4]): 7.7 ± 1.1 g
- Pain threshold value, Frey's hair (CFA rat model; 0.25 h after administration): 9.8 ± 1.0 g
- Pain threshold value, Frey's hair (CFA rat model; 2 h after administration): 10.2 ± 2.7 g
- Pain threshold value, Frey's hair (CFA rat model; 6 h after administration): 9.2 ± 1.4 g
- Pain threshold value, Frey's hair (CFA rat model; 24 h after administration): 7.5 ± 1.8 g
- analgesic effect at 6 h after administration (CFA rat model; 6 h): not significant
- analgesic effect relative to pethidine [3]: 5-9 times
- average peak concentration at which adverse reactions occur [3]: 45 µg/L
- blood concentration producing a potent analgesic effect [3]: 5 to 9 µg/L
- AUC(0-t) [1]: 232 ng·h/mL
- Cmax [1]: 193 ng/mL
- Tmax [1]: 1 h
- half-life [1]: 1.41 h
- AUClast (Brain) [2]: 267 ng·h/g
- Cmax (Brain) [2]: 221 ng/g
- Kp [2]: 1.15
- Tmax [2]: 1 h
- half-life [2]: 2.05 h
